Laboratory results from patent US4808584A, “Quinolinecarboxylic acid derivatives and antibacterial agent containing the same” (Kanebo, Ltd., priority 1987, dated 1989).
Where a name gives a salt, the structure may show the parent alone.

Columns and labels:
[1] = system: Klebsiella pneumoniae PCI 602; assay: Minimum inhibitory concentration (MIC); assay type: cell-based; conditions: Klebsiella pneumoniae, PCI602, Klebsiella pneumoniae PCI 602, Gram -; read-out: Minimum inhibitory concentration (MIC)
Experimental: (§1) The compounds of the present invention (A, C, E, F, G, H and I) and ofloxacin as control were dissolved in 0.1N aqueous potassium hydroxide to prepare a solution of 5000 μg/ml in concentration. The compounds of the present invention (B, D and J) were dissolved in sterilized distilled water to prepare a solution of 5000 μg/ml in concentration. Each solution was diluted with sterilized distilled water to prepare a standard solution with a concentration of each test compound: 1000 μg/ml. The test was carried out by a method approved by Japan Society of Chemotherapy [cf. Chemotherapy, 29, 76-79 (1981)(TOKYO)].

[2] = system: Pseudomonas aeruginosa IFO 3445; assay: Minimum inhibitory concentration (MIC); assay type: cell-based
Experimental: as §1

[3] = system: Serratia marcescens IAM 1184; assay: Minimum inhibitory concentration (MIC); assay type: cell-based
Experimental: as §1

[4] = system: Streptococcus faecalis IID 682; assay: Minimum inhibitory concentration (MIC); assay type: cell-based
Experimental: as §1

[5] = system: methicillin resistant Staphylococcus aureus; assay: Minimum inhibitory concentration against clinically isolated methicillin resistant Staphylococcus aureus; assay type: cell-based
Experimental: The compound (B) was dissolved in sterilized distilled water, and ofloxacin in 0.1N aqueous potassium hydroxide, to prepare a solution of 5000 μg/ml in concentration each. The above solutions were then diluted with sterilized distilled water to prepare a standard solution with a concentration of the test compound: 1000 μg/ml each. The test was carried out by a method approved by Japan Society of Chemotherapy (ibidem) to measure minimum inhibitory concentration (MIC) against 54 strains of clinically isolated methicillin resistant Staphylococcus aureus, from which there were calculated a range of MIC (MICrange) of the test compound against these resistant strains, a minimum concentration for inhibiting the growth of the strains by 50% (MIC50) and a minimum concentration for inhibiting the growth of the strains by 90% (MIC90).

[6] = system: Staphylococcus aureus IID 803; assay: Effect on treatment of general infectious disease; assay type: in vivo, ddY male mice; conditions: IID803, 168 h, S. aureus IID 803, 1.0×10^6 CFU/mouse i.p., oral one hour after infection, survival after one week
Experimental: Staphylococcus aureus IID 803 (1.0×10^6 CFU/mouse)
(§2) The test microorganisms were subjected to standing culture in Trypto-Soya Agar "Nissui" (made by Nissui Seiyaku K.K., Japan) at 37° C. for 16 to 18 hours. The culture was then diluted with PBS (Dulbecco's phosphate buffered saline) and mixed with an equivalent amount of 10% (w/v) Mucin (BACTO MUCIN BACTERIOLOGICAL, made by Difco Co.) to prepare a microorganism solution. The thus prepared microorganism solution (0.5 ml each) was intraperitoneally innoculated to ddY male mice (4 weeks age, weighing 20-22 g, 5 mice in each group), to infect the animals. One hour after the infection, the compound (B) of the present invention dissolved in sterilized distilled water or ofloxacin suspended in 0.5% (w/v) aqueous sodium carboxymethyl cellulose solution was orally adiministered to mice.
(§3) The mice were daily observed for one week, and from the survival number of mice after one week, the 50% effective dose (ED50) was calculated by Weil method.

[7] = system: Escherichia coli KC-14; assay: Effect on treatment of general infectious disease; assay type: in vivo, ddY male mice; conditions: KC14, 168 h, E. coli KC-14, 1.2×10^4 CFU/mouse i.p., oral one hour after infection, survival after one week
Experimental: Escherichia coli KC-14 (1.2×10^4 CFU/mouse)
as §2, §3

[8] = system: Pseudomonas aeruginosa E-2; assay: Effect on treatment of general infectious disease; assay type: in vivo, ddY male mice; conditions: E2, 168 h, P. aeruginosa E-2, 1.6×10^4 CFU/mouse i.p., oral one hour after infection, survival after one week
Experimental: Pseudomonas aeruginosa E-2 (1.6×10^4 CFU/mouse)
as §2, §3

[9] = system: E. coli KC-14; assay: Effect on treatment of infectiousness of the genito-urinary tract; assay type: in vivo, ICR female mice; conditions: Escherichia coli, KC14, 48 h; E. coli KC-14, 5.6×10^5 CFU/mouse into urinary bladder; oral; not more than 10^4 living bacteria/1 g of kidney regarded as effective
Experimental: 2. Test microorganism and inoculum size E. coli KC-14 (5.6×10^5 CFU/mouse) 3. Method:
A microorganism solution (0.1 ml) prepared in the same manner as described in Experiment 3 was introduced into urinary bladder through urinary tract of ICR female mice (5 weeks age, weighing 20 to 22 g, 5 mice in each group), and then urinary meatus was clasped with clip for 4 hours to infect the animals. After taking off the clip, the compound (B) of the present invention dissolved in sterilized distilled water or ofloxacin suspended in 0.5% aqueous sodium carboxymethyl cellulose solution was orally administered to mice. Two days after the infection, mice kidneys were taken out and weighed, to which PBS (Dulbecco's phosphate buffered saline) was added and the mixture was homogenized. The homogenate was then diluted with PBS and inoculated onto a plate of modified Drigalski Agar (BTB lactose agar "Nissui", made by Nissui Seiyaku K.K., Japan) and cultured at 37° C. for 18 hours. The number of the colonies of infectious bacteria grown on the plate was counted. The number of living bacteria per 1 g of kidney was calculated from the number of colonies and the kidney weight. The living bacteria number/1 g of kidney of not more than 10^4 was regarded as effective and an effective dose for 50% mice (ED50) was calculated by Weil method.

[10] = system: ddY male mice; assay: Acute toxicity (LD50); assay type: in vivo; conditions: oral, ddY male mice fasted for 18 hours, Weil method
Experimental: The compound (B) of the present invention was dissolved in sterilized distilled water and the solution was orally administered to ddY male mice (5 weeks age, weighing 20 to 25 g, 5 mice in each group), which had been fasted for 18 hours.

[11] = system: Acinetobacter calcoaceticus AC 54; assay: Minimum inhibitory concentration (MIC); assay type: cell-based; conditions: Acinetobacter calcoaceticus, AC54, Acinetobacter calcoaceticus AC 54, Gram -
Experimental: as §1

[12] = system: Bacillus subtilis ATCC 6633; assay: Minimum inhibitory concentration (MIC); assay type: cell-based; conditions: ATCC6633; Bacillus subtilis ATCC 6633, Gram +; read-out: Minimum inhibitory concentration (MIC)
Experimental: as §1

[13] = system: Citrobacter freundii NIHJ 10018-68; assay: Minimum inhibitory concentration (MIC); assay type: cell-based; conditions: NIHJ10018; Citrobacter freundii NIHJ 10018-68, Gram -
Experimental: as §1

[14] = system: Enterobacter aerogenes ATCC 13048; assay: Minimum inhibitory concentration (MIC); assay type: cell-based; conditions: Klebsiella aerogenes, ATCC13048, Enterobacter aerogenes ATCC 13048, Gram -
Experimental: as §1

[15] = system: Enterobacter cloacae 963; assay: Minimum inhibitory concentration (MIC); assay type: cell-based; conditions: Enterobacter cloacae 963, Gram -
Experimental: as §1

[16] = system: Escherichia coli KC-14; assay: Minimum inhibitory concentration (MIC); assay type: cell-based; conditions: KC14; Escherichia coli KC-14, Gram -
Experimental: as §1

[17] = system: Escherichia coli NIHJ JC-2; assay: Minimum inhibitory concentration (MIC); assay type: cell-based; conditions: NIHJJC2; Escherichia coli NIHJ JC-2, Gram -
Experimental: as §1

[18] = system: Micrococcus luteus ATCC 9341; assay: Minimum inhibitory concentration (MIC); assay type: cell-based; conditions: ATCC9341; Micrococcus luteus ATCC 9341, Gram +
Experimental: as §1

[19] = system: Morganella morganii IFO 3848; assay: Minimum inhibitory concentration (MIC); assay type: cell-based; conditions: IFO3848; Morganella morganii IFO 3848, Gram -
Experimental: as §1

[20] = system: Proteus mirabilis IFO 3849; assay: Minimum inhibitory concentration (MIC); assay type: cell-based; conditions: IFO3849; Proteus mirabilis IFO 3849, Gram -
Experimental: as §1

[21] = system: Proteus vulgaris OX-19; assay: Minimum inhibitory concentration (MIC); assay type: cell-based; conditions: OX19; Proteus vulgaris OX-19, Gram -; read-out: Minimum inhibitory concentration (MIC)
Experimental: as §1

[22] = system: Pseudomonas aeruginosa E-2; assay: Minimum inhibitory concentration (MIC); assay type: cell-based; conditions: E2; Pseudomonas aeruginosa E-2, Gram -
Experimental: as §1

[23] = system: Pseudomonas aeruginosa NCTC 10490; assay: Minimum inhibitory concentration (MIC); assay type: cell-based; conditions: Pseudomonas aeruginosa, NCTC10490, Pseudomonas aeruginosa NCTC 10490, Gram -
Experimental: as §1

[24] = system: Salmonella typhimurium IID 971; assay: Minimum inhibitory concentration (MIC); assay type: cell-based; conditions: Salmonella enterica, read-out: Minimum inhibitory concentration (MIC)
Experimental: as §1

[25] = system: Shigella sonnei EW-33; assay: Minimum inhibitory concentration (MIC); assay type: cell-based; conditions: EW33; Shigella sonnei EW-33, Gram -
Experimental: as §1

[26] = system: Staphylococcus aureus FDA 209P JC-1; assay: Minimum inhibitory concentration (MIC); assay type: cell-based; conditions: FDA209P; Staphylococcus aureus FDA 209P JC-1, Gram +
Experimental: as §1

[27] = system: Staphylococcus aureus IID 803; assay: Minimum inhibitory concentration (MIC); assay type: cell-based; conditions: IID803; Staphylococcus aureus IID 803, Gram +; read-out: Minimum inhibitory concentration (MIC)
Experimental: as §1

[28] = system: Staphylococcus epidermidis IAM-1296; assay: Minimum inhibitory concentration (MIC); assay type: cell-based; conditions: Staphylococcus epidermidis, IAM1296, Staphylococcus epidermidis IAM-1296, Gram +
Experimental: as §1

With `CN1CCN(c2c(F)cc3c(=O)c(C(=O)O)c4scc5n4c3c2OC5)CC1` [Compound (B), 9,1-Epoxymethano-7-fluoro-8-(4-methyl-1-piperazinyl)-5-oxo-5H-thiazolo[3,2-a]quinoline-4-carboxylic acid.hydrochloride] the MIC [1] was 0.025 µg/mL, the “Minimum inhibitory concentration (MIC)” value ([2]; Pseudomonas aeruginosa IFO 3445, Gram -) was 1.56 µg/mL and the “Minimum inhibitory concentration (MIC)” value ([3]; Serratia marcescens IAM 1184, Gram -) was 0.39 µg/mL. For the same molecule, the “Minimum inhibitory concentration (MIC)” value ([4]; Streptococcus faecalis IID 682, Gram +) was 0.78 µg/mL, the MIC ([5]; 54 strains of clinically isolated methicillin resistant Staphylococcus aureus) was 0.1 to 0.39 µg/mL and the MIC50 ([5]; Staphylococcus aureus, minimum concentration for inhibiting the growth of the strains by 50%, 54 strains) was 0.2 µg/mL. The MIC90 ([5]; Staphylococcus aureus, minimum concentration for inhibiting the growth of the strains by 90%, 54 strains) was 0.2 µg/mL, the ED50 [6] was 8.1 mg/kg and the ED50 [7] was 1 mg/kg. For the same molecule, the ED50 [8] was 17.7 mg/kg, the ED50 [9] was 21.7 mg/kg and the LD50 [10] was 1231 mg/kg.

`CCN1CCN(c2c(F)cc3c(=O)c(C(=O)O)c4scc5n4c3c2OC5)CC1` [Compound (J), 9,1-Epoxymethano-7-fluoro-8-(4-ethyl-1-piperazinyl)-5-oxo-5H-thiazolo[3,2-a]quinoline-4-carboxylic acid.hydrochloride.1/2hydrate] gave an MIC [11] of 0.1 µg/mL, an MIC [12] of 0.1 µg/mL and an MIC [13] of 0.39 µg/mL. For the same molecule, the MIC [14] was 0.1 µg/mL, the MIC [15] was 0.1 µg/mL and the MIC [16] was 0.1 µg/mL. For the same molecule, the MIC [17] was 0.1 µg/mL, the MIC [1] was 0.025 µg/mL and the MIC [18] was 3.13 µg/mL. The MIC [19] was 0.1 µg/mL, the MIC [20] was 0.39 µg/mL and the MIC [21] was 0.05 µg/mL. For the same molecule, the MIC [22] was 1.56 µg/mL, the MIC ([2]; Pseudomonas aeruginosa, IFO3445, Pseudomonas aeruginosa IFO 3445, Gram -) was 3.13 µg/mL and the MIC [23] was 0.78 µg/mL. For the same molecule, the MIC [24] was 0.05 µg/mL, the MIC ([3]; Serratia marcescens, IAM1184, Serratia marcescens IAM 1184, Gram -) was 0.39 µg/mL and the MIC [25] was 0.1 µg/mL. It also gave an MIC [26] of 0.2 µg/mL, an MIC [27] of 0.2 µg/mL and an MIC [28] of 0.39 µg/mL. The MIC ([4]; Enterococcus faecalis, IID682, Streptococcus faecalis IID 682, Gram +) was 0.78 µg/mL.
